Legend:
[1] = test system: RPMI-8226 tumors; assay: RPMI-8226 hind-flank xenograft model (Example 3, FIGS. 13-14); assay type: in vivo, mice; settings: RPMI-8226 xenograft; hu38SB19 twice weekly × 2 wk IV; lenalidomide qdx7×3 wk PO
Procedure: Lenolidomide (TC27682) was obtained from AK Scientific Inc. (Mountain View, Calif.) and prepared as a suspension in 1% (w/v) carboxymethyl cellulose (Sigma). Preparation was made using a mortar and pestle to generate a slurry suspension in the vehicle, diluted to the appropriate concentration, and used for dosing by oral gavage. Lenalidomide was administered qdx7×3 wk PO.
Zion Animal Barrier Facility.
RPMI-8226 were cultured in RPMI1640+10% FBS+4 mM L-glutamine.

[2] = test system: NCI-H929 multiple myeloma model; assay: NCI-H929 subcutaneous multiple myeloma xenograft mouse model; assay type: in vivo, mice; settings: lenalidomide 1 mg/kg/day PO QD × 21 d; for Activity: hu38SB19 0.5 mg/kg/injection IV 2x/wk × 2 wk
Description: (§1) The subcutaneous multiple myeloma (MM) xenograft mouse models were established using H929 and RPMI8226 cell lines. Specifically, 5-6 week old female Balb/c Scid mice were obtained from Jackson Lab. Mice were housed for 7-10 days prior to implantation. Mice were housed in a dedicated room in the UCSF Mt Zion Animal Barrier Facility. NCI-H929 and RPMI-8226 cells were obtained from the German Collection of Microorganisms and Cell Cultures, DSMZ, (Deutsche Sammlung von Mikroorganismen and Zellkulturen), and grown in sterile suspension culture in T225 flasks as follows: NCI-H929:RPMI1640+20% FBS+4 mM L-glutamine+1 mM sodium pyruvate+50 μM mercaptoethanol. RPMI-8226:RPMI1640+10% FBS+4 mM L-glutamine.
(§2) At the time of implantation, mice were shaved on the right flank and shoulder region and anesthetized with ip avertin. MM cells suspended in serum free RPMI 1640 media diluted 1:1 with Matrigel (BD) at a concentration of 1×10^8 cells per ml were injected sc into the right flank in 100 μL volume (1×10^7 cells) using a 1 ml syringe and 25 g needle. Mice were monitored twice weekly for the appearance of tumors and once tumors were visible, measurements were collected twice weekly for body weight and tumor volume. Electronic balance and calipers were used and data was collected directly into a study management program (Study Director). When the mean tumor volume reached about 150-200 mm^3, the mice were distributed into treatment groups of 8-10 mice per groups and dosing was begun.
(§3) Data were collected using electronic balance and calipers using a study management application called StudyLog (Study Director).
(§4) Antitumor activity was determined according to NCI standards based on the ratio of the median tumor volume change of the treated/median tumor volume change of the control×100 (% ΔT/ΔC). Low numerical values for ΔT/ΔC describe stronger anti-tumor activity. Anti-tumor activity is defined as ΔT/ΔC≤40% at minimum. ΔT/ΔC<10% is considered high anti-tumor activity.

[3] = test system: RPMI-8226 multiple myeloma model; assay: RPMI-8226 subcutaneous multiple myeloma xenograft mouse model; settings: RPMI-8226 xenograft, hu38SB19 15 mg/kg/injection IV 2x/wk × 2 wk, lenalidomide 15 mg/kg/day PO QD × 21 d
Description: as §1, §2, §3, §4

[4] = test system: tumor cells; settings: reported for other CD38 antibodies; cited from earlier work
[5] = test system: tumor cells; assay: Apoptosis induction on tumor cells (preclinical studies); assay type: cell-based; settings: without cross-linking
[6] = test system: tumor cells; assay: ADCC on tumor cells; assay type: cell-based

Molecule	Tumor growth inhibition [1]	% ΔT/ΔC (D69) ([2]; D69, hu38SB19 0.5 mg/kg/injection IV 2x/wk × 2 wk)	Activity [2]	Activity ([2]; listed as lenalidomide)	% ΔT/ΔC (D69) ([3]; D69)	Activity [3]	Activity ([3]; listed as lenalidomide)	Apoptosis induction [4]	Pro-apoptotic activity on tumor cells [5]	ADCC activity on tumor cells [6]
Nc1cccc2c1CN(C1CCC(=O)NC1=O)C2=O (racemic) [Lenalidomide, (RS)-3-(4-amino-1-oxo-3H-isoindol-2-yl)piperidine-2,6-dione]	not robustly sensitive to single-agent therapy	20%	Active	active	61%	Inactive	inactive	–	–	–
Daratumumab: CD38 antibody reported to induce apoptosis only after cross-linking	–	–	–	–	–	–	–	able to induce apoptosis only after cross-linking with a secondary antibody	–	–
hu38SB19: humanized anti-CD38 antibody; VH SEQ ID NO: 66, VL SEQ ID NO: 62 or 64	dose-dependent inhibition of tumor growth	–	Active	–	–	Inactive	–	–	potent direct pro-apoptotic activity	potent ADCC

Source: patent US10342869B2, “Compositions comprising anti-CD38 antibodies and lenalidomide” (SANOFI, priority 2012, dated 2019)
